Data taken from paper PMC6449294, “SNAPshots of the MCHR1: a Comparison Between the PET-Tracers [^18F]FE@SNAP and [^11C]SNAP-7941” (Molecular Imaging and Biology, 2018).
“Also recorded” adds a separate entry of the source. Read-outs that look alike come from different tables or passages of the source.

Key:
[1] = design: method as in PMID 23829932, PMID 24106662, PMID 27033361; conditions: result in words, not determined in this paper for this tracer; cited from earlier work
[2] = biological target: T1, human serum albumin (HSA) (Homo sapiens, UniProt P02768); assay: Plasma protein binding using bioaffinity chromatography (CHIRALPAK HSA); format: in vitro ADME; conditions: human; bioaffinity chromatography on HSA stationary phase; read-out: Plasma protein binding (%PPB) / Binding to human serum albumin (converted)
T1 construct: purchased Daicel Chemical Industries CHIRALPAK HSA, column-batch H13L-2405
Experimental: The binding of (±)-SNAP-7941 and FE@SNAP to human serum albumin (HSA) was examined by bioaffinity chromatography according to a previously published manuscript. In short, the analytes were diluted in 2-propanol and ammonium acetate buffer (0.5 mg/ml) and injected on the CHIRALPAK®HSA stationary phase (50 × 3 mm, 5 μm pore size, column-batch: H13L-2405, Daicel Chemical Industries, West Chester, PA, USA). Prior the experiments, the column was calibrated with reference standards, and the resulting regression equation was used to convert the logarithmic capacity factors (log(k′)) to the percent of plasma protein binding (%PPB). The calibration curves, as well as the experiments, were performed by triplicate injections and at least three times.

[3] = biological target: MCHR1; design: method as in PMID 28808288; conditions: previous experiments; read-out: Affinity to MCHR1 (Ki); cited from earlier work
[4] = design: method as in earlier work; conditions: previous studies; ref 30 and 34 (table), 32 and 36; cited from earlier work
[5] = Ex vivo metabolites in rat whole blood (radio-HPLC); conditions: for Metabolism in rat blood: ex vivo, result in words
Experimental: (§1) For the analysis of potential radiometabolites, blood samples (50–80 μl) from rats were withdrawn at 10 and 45 min for [^11C]SNAP-7941 and at 10, 30, and 60 min for [^18F]FE@SNAP and immediately subjected to the equivalent amount of acetonitrile, homogenized, and stored on ice before processing. Additionally, [^18F]FE@SNAP was administered to three rats, which were sacrificed after 45 min. Whole brains were harvested and homogenized with equivalent amounts (500–800 μl) of acetonitrile and 0.9 % saline solution using an ULTRA-TURRAX® (T25 basic, IKA Laboratory Equipment, Staufen, Germany). Subsequently, blood and brain were centrifuged (23,000 ×g, 4 min, 4 °C; Hettich Universal 30RF, Tuttlingen, Germany), and the obtained supernatant was analyzed by an analytical HPLC equipped with a radioactivity detector (radio-HPLC) (stationary phase: Chromolith® Performance RP-18e, 100–4.6 mm; precolumn: Chromolith® Guard Cartridge RP-18e, 5–4.6 mm; Merck, Darmstadt, Germany), mobile phase: (water/acetic acid 97.5/2.5 v/v; 2.5 g/l ammonium acetate; pH 3.5)/acetonitrile 70/30 v/v; flow: 1 ml/min, λ = 254 nm). The ratio between metabolite and intact radiotracer was calculated using quantitative HPLC analysis.

[6] = biological target: T2, human MCHR2 (Homo sapiens, UniProt Q969V1); assay: Kinetic real-time cell-binding study (LigandTracer) on CHO-K1-hMCHR2 cells; format: cell-based; conditions: for Selectivity over MCHR2: CHO-K1-hMCHR1 vs CHO-K1-hMCHR2 living cells, Yes/No; for accumulation on CHO-K1-hMCHR2 cells: real-time cell binding, result in words
T2 construct: host or cells: CHO-K1
Experimental: Kinetic real-time cell-binding studies were performed on adherent Chinese hamster ovary (CHO-K1) cells (negative control) and CHO-K1 cells stably expressing the human MCHR1 or MCHR2 (PerkinElmer®; Waltham, MA, USA) with [^11C]SNAP-7941 and [^18F]FE@SNAP as previously reported. The cells were cultured in Ham’s F-12 medium (Gibco®, Life Technologies) with additives (1 % penicillin-streptomycin-glutamine (PSG), 10 % fetal bovine serum (FBS), and 300-μg/m Geneticin (G-418)) and incubated in a humidified 5 % CO2 atmosphere at 37 °C. For the preparation of the binding experiment, approximately 10^6 cells were seeded as a monolayer on the bottom of a tilted cell culture dish (100 mm × 20 mm, CELLSTAR®, Greiner Bio-One) and incubated with 2-ml medium for 24 h to avoid a spreading of the cells over the whole Petri dish. In the next step, the medium was discarded and the Petri dish was placed in a horizontal position with 10-ml medium for additional 24 h. Afterwards, the binding experiment was performed at ambient temperature with LigandTracer® Yellow (Ridgeview Instruments AB, Uppsala, Sweden) using 3-ml fresh medium (Ham’s F-12, serum-free). Unspecific radiotracer uptake was determined with native CHO-K1 cells. The experiments were initiated with baseline measurements for 10–15 min followed by radioligand incubation of [^11C]SNAP-7941 and [^18F]FE@SNAP. Binding to the seeded cells was ensured by adding different concentrations of the radiotracer (0.05–1000 nM). Association-time curves were monitored in real-time until the binding equilibrium was achieved. The observed rate constant of the association reaction (kobs) was determined using non-linear regression curve fitting algorithms implemented in GraphPad Prism 6.0 (GraphPad Software, Inc., San Diego, CA, USA), as previously reported. Cell survival was continuously examined using the perimeter trace (signal vs. dish position) of the LigandTracer® 1.0.1 software (Ridgeview Instruments AB, Uppsala, Sweden).

[7] = design: method as in earlier work; conditions: ultrafiltration, human pooled plasma; ref 30 and 34 (table), 32 and 36; cited from earlier work
[8] = Ex vivo metabolites in rat brain (radio-HPLC)
Experimental: as §1

[9] = 10 min after radiotracer application

T2 sequence (Q969V1 whole entry): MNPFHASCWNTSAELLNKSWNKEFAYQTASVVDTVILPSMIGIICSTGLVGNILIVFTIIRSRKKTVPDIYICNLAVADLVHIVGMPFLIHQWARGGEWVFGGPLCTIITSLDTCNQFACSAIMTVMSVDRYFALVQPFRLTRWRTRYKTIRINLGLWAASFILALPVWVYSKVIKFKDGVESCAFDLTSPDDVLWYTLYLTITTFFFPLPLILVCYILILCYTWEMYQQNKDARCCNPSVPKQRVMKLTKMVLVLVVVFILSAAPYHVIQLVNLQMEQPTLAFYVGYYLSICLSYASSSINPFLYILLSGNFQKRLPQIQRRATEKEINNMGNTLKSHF
T1 sequence (P02768 25-609): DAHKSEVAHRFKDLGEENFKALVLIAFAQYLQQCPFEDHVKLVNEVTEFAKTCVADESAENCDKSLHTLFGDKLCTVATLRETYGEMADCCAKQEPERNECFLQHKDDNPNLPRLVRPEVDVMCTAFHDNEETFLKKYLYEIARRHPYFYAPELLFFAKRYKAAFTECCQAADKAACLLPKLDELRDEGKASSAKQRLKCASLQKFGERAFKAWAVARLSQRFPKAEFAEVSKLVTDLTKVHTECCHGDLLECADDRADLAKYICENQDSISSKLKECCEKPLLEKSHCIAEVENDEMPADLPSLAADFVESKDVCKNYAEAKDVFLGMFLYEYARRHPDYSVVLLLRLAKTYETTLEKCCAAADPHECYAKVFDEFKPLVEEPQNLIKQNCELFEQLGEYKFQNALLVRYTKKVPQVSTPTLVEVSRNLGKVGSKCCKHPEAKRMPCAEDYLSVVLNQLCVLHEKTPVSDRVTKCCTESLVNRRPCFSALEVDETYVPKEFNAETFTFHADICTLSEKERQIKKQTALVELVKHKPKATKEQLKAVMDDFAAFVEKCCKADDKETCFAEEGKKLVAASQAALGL

SMILES: COCC1=C(C(=O)O[11CH3])C(c2ccc(F)c(F)c2)N(C(=O)NCCCN2CCC(c3cccc(NC(C)=O)c3)CC2)C(=O)N1 (centres unmarked) [[^11C]SNAP-7941]
- Metabolism in rat brain [1]: Stable
- fraction unbound at 0.5 mg/ml [2]: 0.2
- Ki [3]: 3.91 ± 0.74 nM
- Lipophilicity (logD) [4]: 3.29 ± 0.01
- intact tracer in rat whole blood [5, 9]: 93.52 ± 0.1%
- intact tracer in rat whole blood ([5]; 45 min): 93.74 ± 6.2%
- Metabolism in rat blood [5]: high metabolic stability; also recorded: Stable
- Selectivity over MCHR2 [6]: Yes
- accumulation on CHO-K1-hMCHR2 cells [6]: negligible accumulation
- Plasma free fraction (human) [7]: 20.96 ± 1%

SMILES: COCC1=C(C(=O)OCC[18F])C(c2ccc(F)c(F)c2)N(C(=O)NCCCN2CCC(c3cccc(NC(C)=O)c3)CC2)C(=O)N1 (centres unmarked) [[^18F]FE@SNAP]
- fraction unbound at 0.5 mg/ml [2]: 0.23
- intact tracer in rat brain ([8]; 45 min): 22.37 ± 5.8%
- Metabolism in rat brain ([8]; ex vivo, result in words): Rapidly metabolized
- Ki [3]: 9.98 ± 1.12 nM
- Lipophilicity (logD) [4]: 3.83 ± 0.1
- intact tracer in rat whole blood [5, 9]: 38.40 ± 2.3%
- intact tracer in rat whole blood ([5]; 30 min after administration): 31.59 ± 4.0%
- intact tracer in rat whole blood ([5]; 60 min): 14.42 ± 3.3%
- Metabolism in rat blood [5]: Rapidly metabolized
- Selectivity over MCHR2 [6]: No
- observed association rate constant (kobs) ([6]; CHO-K1-hMCHR2 cells, ambient temperature, radiotracer 0.05–1000 nM, mean ± SEM): 0.0918 ± 0.0031 min⁻¹
- accumulation on CHO-K1-hMCHR2 cells [6]: exhibited accumulation
- Plasma free fraction (human) [7]: 12.6 ± 0.2%
